Where “and” joins values, the source holds several entries; their conditions need not be identical. Identical values can stand only once.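 Tested at 5 concentrations; 48 h exposure; 96-well plates; endpoints linearly interpolated, else capped at highest concentration. Abbreviation: GI50, concentration required for 50% inhibition of growth. TGI is the concentration that stops growth completely.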 Where a SMILES comes first, the peptide text is derived from it. [ ]: non-standard residue; d: D form. The star is where a group is joined. ξ: configuration not given here. NMeN = CN[C@@H](CC(N)=O)C(=O)O; NMeV = CN[C@H](C(=O)O)C(C)C; ξNMeV = CNC(C(=O)O)C(C)C; Boc = CC(C)(C)OC(=O)*; ξNMeA = CNC(C)C(=O)O
How the values were obtained:
Assay in all cases: DTP human tumour cell line panel, 48 h
SNB-19 CNS = system: SNB-19 CNS
SK-MEL-5 melanoma = system: SK-MEL-5 melanoma
CCRF-CEM leukemia = system: CCRF-CEM leukemia
SK-OV-3 ovarian = system: SK-OV-3 ovarian
HL-60(TB) leukemia = system: HL-60(TB) leukemia
TK-10 renal = system: TK-10 renal
MOLT-4 leukemia = system: MOLT-4 leukemia
SNB-75 CNS = system: SNB-75 CNS
U251 CNS = system: U251 CNS
RXF 393 renal = system: RXF 393 renal

With `O=[N+]([O-])c1ccc(N=Nc2c(O)ccc3ccccc23)cc1` the TGI (SNB-19 CNS) was greater than 100 µM, the TGI (SK-MEL-5 melanoma) was greater than 100 µM and the GI50 (CCRF-CEM leukemia) was 28.4 µM and > 100 µM. For the same compound, the TGI (CCRF-CEM leukemia) was greater than 100 µM, the GI50 (SK-OV-3 ovarian) was 20.2 µM and > 100 µM and the TGI (SK-OV-3 ovarian) was greater than 100 µM. The GI50 (HL-60(TB) leukemia) was 38.4 µM and > 100 µM, the TGI (HL-60(TB) leukemia) was greater than 100 µM and the GI50 (TK-10 renal) was 28 µM and > 100 µM. The TGI (TK-10 renal) was greater than 100 µM, the TGI (MOLT-4 leukemia) was greater than 100 µM and the GI50 (SNB-75 CNS) was 39.3 µM and > 100 µM. The TGI (SNB-75 CNS) was greater than 100 µM, the GI50 (U251 CNS) was 22.5 µM and > 100 µM and the TGI (U251 CNS) was 67 µM and > 100 µM. For the same compound, the GI50 (RXF 393 renal) was 38 µM and > 100 µM and the TGI (RXF 393 renal) was greater than 100 µM.

`Cc1cc(-c2nnc(N)nc2-c2ccc(F)cc2)cc(Cl)n1` showed a GI50 (SNB-19 CNS) greater than 100 µM, a TGI (SNB-19 CNS) greater than 100 µM and a GI50 (SK-MEL-5 melanoma) of 25.5 µM. For the same compound, the TGI (SK-MEL-5 melanoma) was greater than 100 µM, the GI50 (CCRF-CEM leukemia) was 93.1 µM and the TGI (CCRF-CEM leukemia) was greater than 100 µM. It also gave a GI50 (SK-OV-3 ovarian) greater than 100 µM, a TGI (SK-OV-3 ovarian) greater than 100 µM and a GI50 (HL-60(TB) leukemia) of 33.6 µM. It also gave a TGI (HL-60(TB) leukemia) greater than 100 µM, a GI50 (TK-10 renal) of 42.6 µM and a TGI (TK-10 renal) greater than 100 µM. The GI50 (MOLT-4 leukemia) was 49.9 µM, the TGI (MOLT-4 leukemia) was greater than 100 µM and the GI50 (SNB-75 CNS) was 54.3 µM. The TGI (SNB-75 CNS) was greater than 100 µM, the GI50 (U251 CNS) was greater than 100 µM and the TGI (U251 CNS) was greater than 100 µM. For the same compound, the GI50 (RXF 393 renal) was 87.2 µM and the TGI (RXF 393 renal) was greater than 100 µM.

Compound `O=C([O][Hg][CH2]C1COCC([CH2][Hg][O]C(=O)c2ccccc2)O1)c1ccccc1` (stereo not drawn) has a GI50 (SNB-19 CNS) of 19.2 µM, a TGI (SNB-19 CNS) of 40 µM and a GI50 (SK-MEL-5 melanoma) of 11.9 µM. The TGI (SK-MEL-5 melanoma) was 24.6 µM, the GI50 (CCRF-CEM leukemia) was 0.804 µM and the TGI (CCRF-CEM leukemia) was 5.08 µM. The GI50 (SK-OV-3 ovarian) was 21.8 µM, the TGI (SK-OV-3 ovarian) was 43 µM and the GI50 (HL-60(TB) leukemia) was 3.84 µM. For the same compound, the TGI (HL-60(TB) leukemia) was 13.9 µM, the GI50 (TK-10 renal) was 6.33 µM and the TGI (TK-10 renal) was 31.5 µM. For the same compound, the GI50 (MOLT-4 leukemia) was 2.96 µM, the TGI (MOLT-4 leukemia) was 12.5 µM and the GI50 (SNB-75 CNS) was 15.6 µM. The TGI (SNB-75 CNS) was 29.3 µM, the GI50 (U251 CNS) was 0.622 µM and the TGI (U251 CNS) was 2.12 µM. For the same compound, the GI50 (RXF 393 renal) was 1.99 µM and the TGI (RXF 393 renal) was 3.56 µM.

`COC(=O)C(C)N(C)C(=O)[C@H](CC(N)=O)N(C)C(=O)[C@@H]1CCCN1C(=O)[C@H](C(C)C)N(C)C(=O)C(C(C)C)N(C)C(=O)[C@@H](NC(=O)OC(C)(C)C)C(C)C` (stereo partly drawn) (Boc-V[ξNMeV][NMeV]P[NMeN][ξNMeA]-OMe) was tested, and the GI50 (SNB-19 CNS) was greater than 100 µM, the TGI (SNB-19 CNS) was greater than 100 µM and the GI50 (SK-MEL-5 melanoma) was greater than 100 µM. For the same compound, the TGI (SK-MEL-5 melanoma) was 50 µM and > 100 µM, the GI50 (CCRF-CEM leukemia) was 65.7 µM and the TGI (CCRF-CEM leukemia) was greater than 100 µM. The GI50 (SK-OV-3 ovarian) was greater than 100 µM, the TGI (SK-OV-3 ovarian) was greater than 100 µM and the GI50 (HL-60(TB) leukemia) was greater than 100 µM. For the same compound, the TGI (HL-60(TB) leukemia) was 50 µM and > 100 µM, the GI50 (TK-10 renal) was greater than 100 µM and the TGI (TK-10 renal) was greater than 100 µM. The GI50 (MOLT-4 leukemia) was greater than 100 µM, the TGI (MOLT-4 leukemia) was 38.9 µM and > 100 µM and the TGI (SNB-75 CNS) was greater than 100 µM. The GI50 (U251 CNS) was greater than 100 µM, the TGI (U251 CNS) was greater than 100 µM and the GI50 (RXF 393 renal) was 32.6 µM. The TGI (RXF 393 renal) was > 50 µM and 96.8 µM.

In the case of `Cc1occc1C(=S)Nc1ccc(Cl)c(/C=N/OC(C)C)c1`, the TGI (SNB-19 CNS) is reported as greater than 67.4 µM, the TGI (SK-MEL-5 melanoma) is reported as 41.4 µM and the TGI (CCRF-CEM leukemia) is reported as 44.4 µM. The TGI (SK-OV-3 ovarian) was greater than 56.7 µM, the TGI (HL-60(TB) leukemia) was 69.8 µM and the TGI (TK-10 renal) was 55.8 µM. For the same compound, the TGI (MOLT-4 leukemia) was greater than 57.6 µM, the TGI (SNB-75 CNS) was 72.7 µM and the TGI (U251 CNS) was greater than 53.7 µM. For the same compound, the TGI (RXF 393 renal) was 56.4 µM.

`CC1=C2C[C@H]3[C@@H](CC=C4C[C@@H](O)CC[C@@]43C)[C@@H]2CC[C@]12O[C@@H]1C[C@H](C)CN[C@H]1[C@H]2C` was tested, and the GI50 (SNB-19 CNS) was 22.6 µM and 20.7 µM, the TGI (SNB-19 CNS) was 50 µM and 52.6 µM and the GI50 (SK-MEL-5 melanoma) was > 50 µM and 21.7 µM. The TGI (SK-MEL-5 melanoma) was > 50 µM and 53.5 µM, the GI50 (CCRF-CEM leukemia) was 22.6 µM and 23.4 µM and the TGI (CCRF-CEM leukemia) was 50 µM and 80 µM. The GI50 (SK-OV-3 ovarian) was 14.2 µM and 13.9 µM, the TGI (SK-OV-3 ovarian) was 28.2 µM and 34.7 µM and the GI50 (HL-60(TB) leukemia) was 11.5 µM and 15.7 µM. For the same compound, the TGI (HL-60(TB) leukemia) was 50 µM and 55.1 µM, the GI50 (TK-10 renal) was 7.17 µM and 14.2 µM and the TGI (TK-10 renal) was 25.9 µM and 34.1 µM. For the same compound, the GI50 (MOLT-4 leukemia) was 17.7 µM and 20.5 µM, the TGI (MOLT-4 leukemia) was 50 µM and 58.6 µM and the GI50 (SNB-75 CNS) was > 50 µM and 18.8 µM. For the same compound, the TGI (SNB-75 CNS) was > 50 µM and 42.7 µM, the GI50 (U251 CNS) was 7.96 µM and 18.6 µM and the TGI (U251 CNS) was 18.3 µM and 39.6 µM. The GI50 (RXF 393 renal) was 6.01 µM and the TGI (RXF 393 renal) was 27.9 µM and 12.3 µM.

`c1ccc2c(c1)-c1ccccc1C2N1CC2CCC(CC2)C1` showed a TGI (SNB-19 CNS) of 92.4 µM, a TGI (SK-MEL-5 melanoma) of 32.6 µM and a TGI (CCRF-CEM leukemia) of 35.8 µM. For the same compound, the TGI (SK-OV-3 ovarian) was greater than 100 µM, the TGI (HL-60(TB) leukemia) was 11.2 µM and the TGI (TK-10 renal) was greater than 100 µM. It also gave a TGI (MOLT-4 leukemia) of 28.2 µM, a TGI (SNB-75 CNS) of 61.4 µM and a TGI (U251 CNS) of 30.9 µM. For the same compound, the TGI (RXF 393 renal) was 33.7 µM.

With `CN(C)C1CCN(C(=O)c2ccc(NC(=O)Nc3ccc(-c4nc(N5CCOCC5)nc(N5CCOCC5)n4)cc3)cc2)CC1` the GI50 (SNB-19 CNS) was < 0.0123 µM and 0.0131 µM and 0.0174 µM, the TGI (SNB-19 CNS) was 4.23 µM and 2.5 µM and 0.875 µM and the GI50 (SK-MEL-5 melanoma) was 0.0613 µM and 0.548 µM. The TGI (SK-MEL-5 melanoma) was 0.323 µM and 2.18 µM, the GI50 (CCRF-CEM leukemia) was 0.0217 µM and 0.0491 µM and 0.104 µM and the GI50 (SK-OV-3 ovarian) was < 0.01 µM and 0.00732 µM and 0.0204 µM. The TGI (SK-OV-3 ovarian) was 0.0485 µM and 0.0434 µM and 0.188 µM, the GI50 (HL-60(TB) leukemia) was 0.244 µM and 0.0457 µM and 0.0526 µM and the TGI (HL-60(TB) leukemia) was > 20.4 µM and 2.5 µM and 8.91 µM. For the same compound, the GI50 (TK-10 renal) was 0.363 µM and 0.389 µM and 0.122 µM, the TGI (TK-10 renal) was 1.84 µM and 1.56 µM and 2.5 µM and the GI50 (MOLT-4 leukemia) was 0.0311 µM and 0.018 µM and 0.0772 µM. The GI50 (SNB-75 CNS) was < 0.01 µM and 0.00585 µM and 0.00568 µM, the TGI (SNB-75 CNS) was 0.0164 µM and 0.0427 µM and 0.0783 µM and the GI50 (U251 CNS) was 0.0171 µM and 0.0116 µM and 0.0375 µM. The TGI (U251 CNS) was 15.1 µM and 2.5 µM and 2.44 µM and the GI50 (RXF 393 renal) was 0.023 µM and 0.0271 µM and 0.21 µM.

With `Cc1cc(N2CCN(c3ccnc4cc(Cl)ccc34)CC2)nc(NC2CCCCC2)n1` the GI50 (SNB-19 CNS) was 2.98 µM, the TGI (SNB-19 CNS) was 11 µM and the GI50 (SK-MEL-5 melanoma) was 1.73 µM. The TGI (SK-MEL-5 melanoma) was 3.3 µM, the GI50 (CCRF-CEM leukemia) was 2.71 µM and the TGI (CCRF-CEM leukemia) was 10.1 µM. The GI50 (SK-OV-3 ovarian) was 2.02 µM, the TGI (SK-OV-3 ovarian) was 4.51 µM and the GI50 (HL-60(TB) leukemia) was 2.25 µM. It also gave a TGI (HL-60(TB) leukemia) of 5.32 µM, a GI50 (TK-10 renal) of 1.87 µM and a TGI (TK-10 renal) of 3.54 µM. For the same compound, the GI50 (MOLT-4 leukemia) was 2.38 µM, the TGI (MOLT-4 leukemia) was 5.62 µM and the GI50 (SNB-75 CNS) was 1.79 µM. For the same compound, the TGI (SNB-75 CNS) was 3.95 µM, the GI50 (U251 CNS) was 1.72 µM and the TGI (U251 CNS) was 3.37 µM. The GI50 (RXF 393 renal) was 1.71 µM and the TGI (RXF 393 renal) was 3.79 µM.

`O=C(Nc1ccc(F)cc1F)c1cc(Br)ccc1O` gave a GI50 (SNB-19 CNS) of 2.75 µM, a TGI (SNB-19 CNS) greater than 100 µM and a GI50 (SK-MEL-5 melanoma) of 1.59 µM. The TGI (SK-MEL-5 melanoma) was 3.34 µM, the GI50 (CCRF-CEM leukemia) was 3.71 µM and the TGI (CCRF-CEM leukemia) was 69.3 µM. For the same compound, the GI50 (SK-OV-3 ovarian) was 0.53 µM, the TGI (SK-OV-3 ovarian) was 3.5 µM and the GI50 (HL-60(TB) leukemia) was 2.44 µM. For the same compound, the TGI (HL-60(TB) leukemia) was 7.17 µM, the GI50 (TK-10 renal) was 4.83 µM and the TGI (TK-10 renal) was greater than 100 µM. It also gave a GI50 (MOLT-4 leukemia) of 2.96 µM, a TGI (MOLT-4 leukemia) of 12.2 µM and a GI50 (SNB-75 CNS) of 0.558 µM. It also gave a TGI (SNB-75 CNS) of 3.73 µM, a GI50 (U251 CNS) of 2.78 µM and a TGI (U251 CNS) greater than 100 µM. The GI50 (RXF 393 renal) was 2.4 µM and the TGI (RXF 393 renal) was 7.03 µM.
